The text below walks through data of BindingDB's records for PubMed 11082457 (Centre De Recherches De Croissy, 2000).

Assay [1] concerns the target T1, Alpha-1B adrenergic receptor (Homo sapiens, UniProt P35368).
T1 sequence (P35368 whole entry): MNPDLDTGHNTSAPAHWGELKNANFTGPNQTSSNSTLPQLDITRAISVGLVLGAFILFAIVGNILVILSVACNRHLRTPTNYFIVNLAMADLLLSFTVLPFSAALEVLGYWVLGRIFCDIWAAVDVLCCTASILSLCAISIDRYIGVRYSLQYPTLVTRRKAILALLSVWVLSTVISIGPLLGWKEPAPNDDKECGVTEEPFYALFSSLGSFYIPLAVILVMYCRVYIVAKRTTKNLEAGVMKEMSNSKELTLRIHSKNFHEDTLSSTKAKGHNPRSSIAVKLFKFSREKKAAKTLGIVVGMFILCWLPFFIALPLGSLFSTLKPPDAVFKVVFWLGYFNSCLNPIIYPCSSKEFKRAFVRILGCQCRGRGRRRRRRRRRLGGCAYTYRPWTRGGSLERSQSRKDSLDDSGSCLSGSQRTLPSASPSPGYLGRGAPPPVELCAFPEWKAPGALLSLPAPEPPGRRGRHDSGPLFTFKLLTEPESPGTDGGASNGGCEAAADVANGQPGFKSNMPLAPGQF

For assay [2], the target named is T2, Nischarin (Bos mutus, UniProt L8IEU8).
T2 sequence (L8IEU8 whole entry): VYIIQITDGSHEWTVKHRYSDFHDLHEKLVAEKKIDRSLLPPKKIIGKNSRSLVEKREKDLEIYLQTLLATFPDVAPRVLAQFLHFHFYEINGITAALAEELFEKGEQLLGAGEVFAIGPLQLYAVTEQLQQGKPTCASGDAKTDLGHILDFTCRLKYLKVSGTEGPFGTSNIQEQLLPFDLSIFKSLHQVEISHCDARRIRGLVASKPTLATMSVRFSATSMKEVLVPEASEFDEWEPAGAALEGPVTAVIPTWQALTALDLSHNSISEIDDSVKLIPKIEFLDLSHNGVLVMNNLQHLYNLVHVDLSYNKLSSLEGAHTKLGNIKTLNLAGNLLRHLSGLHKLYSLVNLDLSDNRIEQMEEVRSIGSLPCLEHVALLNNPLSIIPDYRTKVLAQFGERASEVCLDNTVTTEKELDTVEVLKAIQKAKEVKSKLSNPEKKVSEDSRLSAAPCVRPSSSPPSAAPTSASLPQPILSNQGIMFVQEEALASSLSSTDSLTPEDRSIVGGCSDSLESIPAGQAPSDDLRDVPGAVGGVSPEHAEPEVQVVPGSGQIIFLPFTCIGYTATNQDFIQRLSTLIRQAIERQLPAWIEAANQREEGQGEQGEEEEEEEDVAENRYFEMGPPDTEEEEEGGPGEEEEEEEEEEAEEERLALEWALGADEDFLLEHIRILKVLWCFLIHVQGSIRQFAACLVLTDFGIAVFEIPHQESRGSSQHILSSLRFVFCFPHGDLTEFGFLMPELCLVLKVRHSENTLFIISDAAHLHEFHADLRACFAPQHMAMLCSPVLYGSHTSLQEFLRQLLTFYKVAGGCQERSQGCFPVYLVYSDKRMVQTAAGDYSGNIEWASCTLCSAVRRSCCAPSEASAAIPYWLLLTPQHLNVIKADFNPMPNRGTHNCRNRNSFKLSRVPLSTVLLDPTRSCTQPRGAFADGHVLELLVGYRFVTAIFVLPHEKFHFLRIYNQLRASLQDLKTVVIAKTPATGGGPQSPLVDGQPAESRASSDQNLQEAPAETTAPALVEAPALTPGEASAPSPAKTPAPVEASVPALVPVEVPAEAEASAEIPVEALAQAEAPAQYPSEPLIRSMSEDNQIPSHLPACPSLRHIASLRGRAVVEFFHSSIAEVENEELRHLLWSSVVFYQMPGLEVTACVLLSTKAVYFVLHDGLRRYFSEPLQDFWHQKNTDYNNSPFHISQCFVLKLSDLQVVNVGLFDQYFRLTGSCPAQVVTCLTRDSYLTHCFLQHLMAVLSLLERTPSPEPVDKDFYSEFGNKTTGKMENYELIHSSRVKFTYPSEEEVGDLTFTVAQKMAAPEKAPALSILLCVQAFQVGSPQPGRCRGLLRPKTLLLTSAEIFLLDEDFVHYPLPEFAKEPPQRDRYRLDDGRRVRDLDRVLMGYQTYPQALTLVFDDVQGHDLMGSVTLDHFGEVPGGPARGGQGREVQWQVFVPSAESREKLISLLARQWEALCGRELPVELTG

For assay [3], the target named is T3, Alpha-1B adrenergic receptor (Rattus norvegicus, UniProt P15823).
T3 sequence (P15823 whole entry): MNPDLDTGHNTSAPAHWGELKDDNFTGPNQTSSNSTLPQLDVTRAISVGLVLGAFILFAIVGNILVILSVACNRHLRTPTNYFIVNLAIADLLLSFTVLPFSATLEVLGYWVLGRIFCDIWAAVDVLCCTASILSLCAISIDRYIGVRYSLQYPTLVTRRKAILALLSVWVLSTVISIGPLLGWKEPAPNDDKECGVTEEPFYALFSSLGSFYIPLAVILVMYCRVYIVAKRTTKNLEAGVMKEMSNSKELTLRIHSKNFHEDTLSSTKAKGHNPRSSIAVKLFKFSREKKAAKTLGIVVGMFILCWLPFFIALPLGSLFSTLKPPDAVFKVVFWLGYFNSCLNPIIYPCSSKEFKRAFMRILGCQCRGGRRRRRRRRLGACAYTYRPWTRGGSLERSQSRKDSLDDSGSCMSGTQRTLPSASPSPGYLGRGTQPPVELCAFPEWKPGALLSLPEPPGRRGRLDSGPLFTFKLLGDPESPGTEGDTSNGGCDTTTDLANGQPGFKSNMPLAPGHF

Assay [4] has as its target Sodium-dependent noradrenaline transporter (Homo sapiens, UniProt P23975).
Assay [5] has as its target Nischarin (Rattus norvegicus, UniProt Q4G017).

Sodium-dependent noradrenaline transporter, sequence (P23975 whole entry): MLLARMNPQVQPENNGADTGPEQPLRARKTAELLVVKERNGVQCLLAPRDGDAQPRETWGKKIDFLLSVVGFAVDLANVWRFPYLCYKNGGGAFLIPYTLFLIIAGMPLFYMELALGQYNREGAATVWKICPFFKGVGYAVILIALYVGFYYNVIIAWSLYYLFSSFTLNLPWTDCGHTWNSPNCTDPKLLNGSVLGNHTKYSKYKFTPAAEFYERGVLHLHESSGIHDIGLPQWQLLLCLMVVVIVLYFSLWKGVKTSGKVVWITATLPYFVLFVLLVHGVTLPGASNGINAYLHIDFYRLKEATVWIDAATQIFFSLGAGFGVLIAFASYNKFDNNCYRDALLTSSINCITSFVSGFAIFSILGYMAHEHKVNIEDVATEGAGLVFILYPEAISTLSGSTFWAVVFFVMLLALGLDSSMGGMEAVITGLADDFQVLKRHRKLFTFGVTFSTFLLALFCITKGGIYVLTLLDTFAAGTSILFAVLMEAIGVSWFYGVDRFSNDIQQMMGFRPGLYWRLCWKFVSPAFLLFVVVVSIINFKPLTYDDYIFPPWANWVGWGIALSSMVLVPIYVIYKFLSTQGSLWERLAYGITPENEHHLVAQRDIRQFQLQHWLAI
Nischarin (Rattus norvegicus, UniProt Q4G017), sequence (Q4G017 whole entry): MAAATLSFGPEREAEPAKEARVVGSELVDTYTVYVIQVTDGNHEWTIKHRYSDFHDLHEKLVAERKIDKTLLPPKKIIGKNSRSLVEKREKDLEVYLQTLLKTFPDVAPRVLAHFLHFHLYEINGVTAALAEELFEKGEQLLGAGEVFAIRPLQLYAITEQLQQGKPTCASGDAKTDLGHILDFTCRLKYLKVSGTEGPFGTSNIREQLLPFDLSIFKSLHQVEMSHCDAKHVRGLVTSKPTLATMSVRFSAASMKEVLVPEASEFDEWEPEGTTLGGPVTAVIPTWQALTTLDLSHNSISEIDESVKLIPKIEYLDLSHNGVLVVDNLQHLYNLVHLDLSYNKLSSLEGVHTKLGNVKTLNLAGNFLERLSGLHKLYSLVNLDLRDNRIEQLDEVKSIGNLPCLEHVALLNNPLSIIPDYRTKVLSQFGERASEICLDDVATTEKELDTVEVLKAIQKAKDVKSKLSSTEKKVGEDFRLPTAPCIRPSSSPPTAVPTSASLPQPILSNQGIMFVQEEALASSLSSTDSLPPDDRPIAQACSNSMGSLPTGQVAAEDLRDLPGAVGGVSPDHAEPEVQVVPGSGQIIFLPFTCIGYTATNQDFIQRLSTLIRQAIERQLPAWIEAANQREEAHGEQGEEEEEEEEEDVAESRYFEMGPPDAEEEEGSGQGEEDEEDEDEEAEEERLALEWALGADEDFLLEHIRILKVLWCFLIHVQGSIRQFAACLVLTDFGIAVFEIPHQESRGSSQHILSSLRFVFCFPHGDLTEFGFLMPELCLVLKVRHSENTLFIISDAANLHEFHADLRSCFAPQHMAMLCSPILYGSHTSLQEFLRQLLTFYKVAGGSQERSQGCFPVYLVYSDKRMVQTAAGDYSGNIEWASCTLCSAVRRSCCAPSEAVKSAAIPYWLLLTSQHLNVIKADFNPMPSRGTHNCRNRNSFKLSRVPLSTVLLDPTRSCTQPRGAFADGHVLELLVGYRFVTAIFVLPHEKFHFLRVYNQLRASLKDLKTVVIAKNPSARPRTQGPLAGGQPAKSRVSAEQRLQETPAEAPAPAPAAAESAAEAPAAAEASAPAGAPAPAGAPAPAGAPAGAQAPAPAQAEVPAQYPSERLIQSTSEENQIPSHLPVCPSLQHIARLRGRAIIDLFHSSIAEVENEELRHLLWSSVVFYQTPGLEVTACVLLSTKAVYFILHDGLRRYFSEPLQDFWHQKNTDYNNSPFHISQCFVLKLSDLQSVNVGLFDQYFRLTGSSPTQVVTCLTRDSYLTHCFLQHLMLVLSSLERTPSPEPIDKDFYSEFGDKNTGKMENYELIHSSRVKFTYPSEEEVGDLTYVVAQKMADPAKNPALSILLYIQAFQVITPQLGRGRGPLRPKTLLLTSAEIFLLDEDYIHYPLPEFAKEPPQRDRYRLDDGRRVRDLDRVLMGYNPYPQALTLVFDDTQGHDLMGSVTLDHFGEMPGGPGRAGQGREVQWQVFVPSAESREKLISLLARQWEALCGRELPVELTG

As for `Cc1cccc([C@@H](C)c2cnc[nH]2)c1C`, the Ki in assay [1] was 316 nM; at Nischarin [2] it was 200 nM; in assay [3], 316 nM; in assay [4] it was 1000 nM; at Nischarin [5] it was 50.1 nM.
For the compound `NC1=NC2(CCc3ccccc3C2)CO1` (stereo not given) [S18616], the Ki is 20 nM in assay [1]; 39.8 nM on Nischarin [2]; 100 nM in assay [3]; 1000 nM in assay [4]; 79.4 nM at Nischarin [5].

For orientation: Ki means the equilibrium dissociation constant of an inhibitor or competing ligand from its target. Low values mean higher affinity, high ones lower affinity.
